Values quoted from earlier work, collected in article PMC6891678, “A Novel Prodrug Approach for Central Nervous System-Selective Estrogen Therapy” (Molecules, 2019).
Each block holds one molecule with its values, some of them ahead of it.

Experiments:
brain homogenate = conditions: 100 μM, 37 °C, homogenate 0.2% w/v, pH 7.4; mean ± SD
liver homogenate = conditions: 100 μM, 37 °C, homogenate 0.2% w/v, pH 7.4; mean ± SD
retina homogenate = conditions: 100 μM, 37 °C, homogenate 0.2% w/v, pH 7.4; mean ± SD
[1] = test system: MCP-1−/− transgenic mouse model; set-up: method as in earlier work; conditions: topical eye drops; for increase of contrast sensitivity compared to the vehicle control: ipsilateral/treated eye
[2] = test system: transient middle cerebral artery occlusion (tMCAO) ischemic stroke model; conditions: for ED50 (dose equivalent to 50% of the maximum effect): neuroprotection, tMCAO followed by reperfusion
[3] = test system: middle-aged OVX Fisher-344 rats; conditions: continuous 7-week s.c. administration, 4 µg daily dose
[4] = test system: ER transcription (ERE-Luc reporter)
amyloid-β peptide (Aβ) = conditions: OVX and intact female APPswe/PS1dE9 DTG mice
[5] = not given; remark: listed apart in the source
[6] = E2-CDS-treated animals
uterus [7] = conditions: after E2-CDS
OVX CD1 mice = conditions: increasing s.c. doses, 5 days once daily
[8] = 300 µg/kg s.c., 5 days once daily, SEM, n = 4
uterus [9] = conditions: increasing s.c. doses, 5 days once daily

SMILES: C[C@]12CC[C@@H]3C4=C(CC[C@H]3[C@@H]1CCC2=O)C(=O)C(=O)C=C4 [3,4-E1-quinone, estra-1,5(10)-dien-3,4,17-trione, reference compound]
Rate of H2O2 production, Brain (brain homogenate): 1050 ± 8 nmol·h^−1·mg protein^−1
Rate of H2O2 production, Liver (liver homogenate): 687 ± 40 nmol·h^−1·mg protein^−1
Rate of H2O2 production, Retina (retina homogenate): 580 ± 50 nmol·h^−1·mg protein^−1

SMILES: C[C@]12CC[C@H]3[C@@H](CCC4=CC(=O)C=C[C@@]43O)[C@@H]1CC[C@@H]2O [DHED, 10β,17β-dihydroxyestra-1,4-dien-3-one]
oral bioavailability: excellent oral bioavailability
increase of contrast sensitivity compared to the vehicle control [1]: approximately 3 fold
preservation of contrast sensitivity compared to the wild-type (WT) control [1]: approximately 75%
ED50 (dose equivalent to 50% of the maximum effect) [2]: 15 µg/kg
working memory errors compared to control animals [3]: significantly decreased working memory errors
ER activation within the brain (bioluminescence in brain slices) ([4]; i.c.v. injection, 75 µg/kg): profound ER activation
bioluminescence in the periphery (ERE-Luc reporter activation) ([4]; s.c., E2 20 μg/kg, DHED 200 μg/kg): did not generate bioluminescence in the periphery
amyloid-β peptide (Aβ) levels in the brain (amyloid-β peptide (Aβ)): decreased amyloid-β peptide (Aβ) levels in the brain
Rate of H2O2 production, Brain (brain homogenate): 125 ± 19 nmol·h^−1·mg protein^−1
Rate of H2O2 production, Liver (liver homogenate): 34 ± 18 nmol·h^−1·mg protein^−1
Rate of H2O2 production, Retina (retina homogenate): 163 ± 9 nmol·h^−1·mg protein^−1

E2 concentration in the retina ([5]; 3-week daily E2 eye drops): ~ 22 ng/g
circulating estrogen levels ([5]; chronic E2 eye drop treatment): > 400 pg/mL
oral bioavailability: lacks appreciable oral bioavailability
SMILES: C[C@]12CC[C@@H]3c4ccc(O)cc4CC[C@H]3[C@@H]1CC[C@@H]2O [E2, 17β-estradiol, reference compound]
increase of contrast sensitivity compared to the vehicle control [1]: ~2 fold
preservation of contrast sensitivity compared to the wild-type (WT) control [1]: ~50%
ED50 (dose equivalent to 50% of the maximum effect) [2]: ~ 200 µg/kg
time of maximum bioluminescence effect after drug treatment ([4]; E2 20 μg/kg s.c.): about 3 h

E2 content of uterus [6]: 1 to 3 ng/g
SMILES: CN1C=CCC(C(=O)O[C@H]2CC[C@H]3[C@@H]4CCc5cc(O)ccc5[C@H]4CC[C@]23C)=C1 [E2-CDS]
wet uterine weight relative to control (uterotrophic effect) (uterus [7]): significant increase in wet uterine weight

SMILES: C[C@]12CC[C@H]3[C@@H](CCC4=CC(=O)C=C[C@@]43O)[C@@H]1CCC2=O [HEDD, 10β-hydroxyestra-1,4-dien-3,17-dione]
neuroprotection in stroke model ([2]; without peripheral hormonal liability): significant neuroprotection

SMILES: C[C@]12CC[C@H]3[C@@H](CCC4=CC(=O)C=C[C@@]43O)[C@@H]1CC[C@H]2O [αDHED, 10β,17α-dihydroxyestra-1,4-dien-3-one]
immobility time in PST (OVX CD1 mice): dose-dependent reduction in immobility times
Cortex αE2 [8]: 8.9 ± 1.7 ng/g
Serum αE2 [8]: <0.01 ng/mL
Cortex E2 ([8]; endogenous E2): 0.28 ± 0.09 ng/g
Serum E2 ([8]; endogenous E2): <0.01 ng/mL
Uterus E2 ([8]; endogenous E2): 0.37 ± 0.10 ng/g
uterotrophic effect (wet uterus weight) (uterus [9]): devoid of this detrimental common side effect

SMILES: C[C@]12CC[C@@H]3c4ccc(O)cc4CC[C@H]3[C@@H]1CC[C@H]2O [αE2, 17α-estradiol, reference compound]
immobility time in PST (OVX CD1 mice): dose-dependent reduction in immobility times
